From ChEMBL document CHEMBL4665650, “Towards a TREK-1/2 (TWIK-Related K+ Channel 1 and 2) dual activator tool compound: Multi-dimensional optimization of BL-1249” (Bioorg Med Chem Lett, 2019)

What was measured:
[1] = molecular target: T1, Potassium channel subfamily K member 10 (Homo sapiens) (UniProt P57789); assay: Activation of human TREK2 at 30 uM by thallium flux mobilization assay relative to control
T1 sequence (whole entry): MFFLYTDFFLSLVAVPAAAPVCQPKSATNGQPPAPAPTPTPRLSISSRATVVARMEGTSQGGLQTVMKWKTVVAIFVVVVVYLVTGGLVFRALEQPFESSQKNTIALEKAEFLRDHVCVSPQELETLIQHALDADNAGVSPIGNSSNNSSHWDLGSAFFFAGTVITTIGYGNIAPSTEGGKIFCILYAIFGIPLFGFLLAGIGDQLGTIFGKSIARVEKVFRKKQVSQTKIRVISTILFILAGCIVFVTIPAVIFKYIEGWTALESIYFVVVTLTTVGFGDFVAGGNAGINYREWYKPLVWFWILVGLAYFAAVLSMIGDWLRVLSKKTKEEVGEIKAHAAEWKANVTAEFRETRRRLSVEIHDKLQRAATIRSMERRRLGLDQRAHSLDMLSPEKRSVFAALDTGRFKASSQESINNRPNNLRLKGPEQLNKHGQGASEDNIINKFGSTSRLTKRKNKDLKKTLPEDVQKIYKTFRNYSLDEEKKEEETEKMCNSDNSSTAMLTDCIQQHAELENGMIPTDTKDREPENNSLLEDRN

[2] = molecular target: T2, Potassium channel subfamily K member 2 (Homo sapiens) (UniProt O95069); assay: Activation of human TREK1 at 30 uM by thallium flux mobilization assay relative to control
T2 sequence (whole entry): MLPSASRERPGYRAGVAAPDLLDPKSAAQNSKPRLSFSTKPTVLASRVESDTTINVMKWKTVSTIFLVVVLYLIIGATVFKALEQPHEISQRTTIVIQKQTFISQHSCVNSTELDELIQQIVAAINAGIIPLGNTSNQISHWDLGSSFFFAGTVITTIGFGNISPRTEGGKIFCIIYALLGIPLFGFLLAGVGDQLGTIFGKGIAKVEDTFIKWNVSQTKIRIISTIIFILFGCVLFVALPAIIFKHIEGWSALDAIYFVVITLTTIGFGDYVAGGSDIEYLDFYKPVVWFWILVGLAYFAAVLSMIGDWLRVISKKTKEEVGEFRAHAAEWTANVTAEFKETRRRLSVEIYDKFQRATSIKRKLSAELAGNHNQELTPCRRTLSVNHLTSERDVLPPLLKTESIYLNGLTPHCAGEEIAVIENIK

[3] = molecular target: T1, Potassium channel subfamily K member 10 (Homo sapiens); assay: Activation of human TREK2 at 10 uM by thallium flux mobilization assay relative to control
[4] = molecular target: T2, Potassium channel subfamily K member 2 (Homo sapiens); assay: Activation of human TREK1 at 10 uM by thallium flux mobilization assay relative to control
[5] = molecular target: T3, Potassium channel subfamily K member 10 (Homo sapiens, UniProt P57789); assay: Activation of human TREK2 by thallium flux mobilization assay
T3 sequence (P57789 whole entry): T1 sequence (whole entry)

[6] = molecular target: T4, Potassium channel subfamily K member 2 (Homo sapiens, UniProt O95069); assay: Activation of human TREK1 by thallium flux mobilization assay
T4 sequence (O95069 whole entry): T2 sequence (whole entry)

[7] = Fraction unbound in mouse plasma; assay type: ADME, cell-free
[8] = Fraction unbound in human plasma; assay type: ADME, cell-free
[9] = Fraction unbound in rat plasma; assay type: ADME, cell-free

Row | SMILES | Activity [1] | Activity [2] | EC50 [5] | EC50 [6] | Activity ([2]; filed as activator) | also measured
1 | O=C(O)c1cccc(NC(=O)c2ccc(C(F)(F)F)cc2)c1 | 0% | -11% |  |  |  | 
2 | O=C(Nc1cccc2c1CCCC2)c1ccccc1-c1nnn[nH]1 |  |  |  |  |  | Activity [3]: 1%; Activity [4]: 0%
3 | O=C(O)c1cccc(NC(=O)c2cccc(C(F)(F)F)c2)c1 | -3% | -10% |  |  |  | 
4 | O=C(Nc1cc(Br)ccc1C(=O)O)c1ccc(SC(F)(F)F)cc1 |  |  | 5.9 µM | 4.3 µM | 76% | Activity ([1]; filed as activator): 74%
5 | O=C(O)Cc1cccc(NC(=O)c2ccc(C(F)(F)F)cc2)c1 | -1% | 0% |  |  |  | 
6 | O=C(O)Cc1ccccc1NC(=O)c1cccc(C(F)(F)F)c1 | 2% | 5% |  |  |  | 
7 | Cc1sc(NC(=O)c2ccc(SC(F)(F)F)cc2)c(C(=O)O)c1C | 12% | 31% | < 3.6 µM | < 3.1 µM |  | 
8 | O=C(Nc1ccc2c(c1)CCCC2)c1ccccc1-c1nnn[nH]1 |  |  |  |  |  | Activity [3]: 1%; Activity [4]: 0%
9 | COc1ccc(C(=O)O)c(NC(=O)c2ccc(SC(F)(F)F)cc2)c1 | 27% |  | 28.5 µM | 16.5 µM | 52% | 
10 | O=C(O)Cc1cccc(NC(=O)c2cccc(C(F)(F)F)c2)c1 | 1% | -1% |  |  |  | 
11 | O=C(Nc1ccc(OC(F)(F)F)cc1C(=O)O)c1ccc(SC(F)(F)F)cc1 |  |  | 5.6 µM | 4.6 µM | 57% | Activity ([1]; filed as activator): 60%
12 | O=C(O)Cc1ccccc1NC(=O)c1ccc(C(F)(F)F)cc1 | 0% | -6% |  |  |  | 
13 | O=C(Nc1ccc(Cl)cc1C(=O)O)c1ccc(SC(F)(F)F)cc1 |  |  | 6.8 µM | 3.8 µM | 69% | Activity ([1]; filed as activator): 76%
14 | O=C(O)Cc1cccc(NC(=O)c2ccccc2C(F)(F)F)c1 | 0% | 2% |  |  |  | 
15 | O=C(Nc1ccccc1C(=O)O)c1ccc(C(F)(F)F)cc1 | 12% | 28% |  |  |  | 
16 | O=C(Nc1sccc1C(=O)O)c1ccc(SC(F)(F)F)cc1 | 28% |  | > 30 µM | > 30 µM | 58% | 
17 | O=C(Nc1ccccc1C(=O)O)c1cccc(SC(F)(F)F)c1 | 17% | 40% |  |  |  | 
18 | O=C(Nc1ncccc1C(=O)O)c1ccc(SC(F)(F)F)cc1 | 1% | -4% |  |  |  | 

Row | SMILES | Activity [1] | Activity [2] | EC50 [5] | EC50 [6] | Activity ([2]; filed as activator) | also measured
19 | O=C(Nc1cnncc1C(=O)O)c1ccc(SC(F)(F)F)cc1 | 1% | 1% |  |  |  | 
20 | O=C(Nc1ccc(F)cc1C(=O)O)c1ccc(SC(F)(F)F)cc1 |  |  | > 30 µM | 9.5 µM | 54% | Activity ([1]; filed as activator): 43%
21 | O=C(Nc1cc(Cl)ccc1C(=O)O)c1ccc(SC(F)(F)F)cc1 |  |  | 7.5 µM | 4.4 µM | 66% | Activity ([1]; filed as activator): 73%
22 | O=C(Nc1ccccc1-c1nnn[nH]1)c1cccc2c1CCCC2 |  |  |  |  |  | Activity [3]: 2%; Activity [4]: 6%
23 | O=C(O)c1ccccc1NC(=O)c1ccccc1C(F)(F)F | -3% | 1% |  |  |  | 
24 | O=C(Nc1ccoc1C(=O)O)c1ccc(SC(F)(F)F)cc1 | 5% | 8% |  |  |  | 
25 | O=C(O)Cc1ccccc1NC(=O)c1ccccc1C(F)(F)F | -1% | 4% |  |  |  | 
26 | O=C(Nc1nccnc1C(=O)O)c1ccc(SC(F)(F)F)cc1 | 0% | -6% |  |  |  | 
27 | COc1ccc(NC(=O)c2ccc(SC(F)(F)F)cc2)c(C(=O)O)c1 | 31% |  | > 30 µM | 20.2 µM | 50% | 
28 | O=C(Nc1ccccc1-c1nnn[nH]1)c1ccc2c(c1)CCCC2 |  |  |  | 13.1 µM |  | Activity [3]: 21%; Activity [4]: 24%
29 | O=C(O)c1cccc(NC(=O)c2ccccc2C(F)(F)F)c1 | -1% | -14% |  |  |  | 
30 | O=C(Nc1ccc(Br)cc1C(=O)O)c1ccc(SC(F)(F)F)cc1 |  |  | 7.7 µM | 5.9 µM | 114% | Activity ([1]; filed as activator): 101%; fraction unbound [7]: 0.029; fraction unbound [8]: 0.003; fraction unbound [9]: 0.013
31 | O=C(Nc1ccccc1C(=O)O)c1cccc(C(F)(F)F)c1 | 12% | 28% |  |  |  | 
32 | O=C(Nc1ccccc1C(=O)O)c1ccc(SC(F)(F)F)cc1 | 17% |  | 5 µM | 12.8 µM | 50% | fraction unbound [7]: 0.081; fraction unbound [8]: 0.026; fraction unbound [9]: 0.04
33 | O=C(Nc1sc(-c2ccccc2)cc1C(=O)O)c1ccc(SC(F)(F)F)cc1 |  |  | > 30 µM | 22.4 µM | 83% | Activity ([1]; filed as activator): 49%
34 | O=C(Nc1ccc([N+](=O)[O-])cc1C(=O)O)c1ccc(SC(F)(F)F)cc1 |  |  | 26.5 µM | 13.7 µM | 56% | Activity ([1]; filed as activator): 65%
35 | O=C(Nc1ncncc1C(=O)O)c1ccc(SC(F)(F)F)cc1 | 0% | -4% |  |  |  | 
